According to patent US5132299A, “11β-phenyl-4,9,15-estratrienes, their manufacture and pharmaceutical preparations containing same” (Schering Aktiengesellschaft, priority 1987, dated 1992):

Assays:
[1] = test system: pregnant rats; assay: Abortive test with pregnant rats (antigestagenic effect); assay type: in vivo, rat; conditions: for Abortion Rate n aborting/n treated rats: d5-d7 p.c., autopsy d9 p.c.; for abortive effect in words: dose of 0.3 mg, pregnant rats s.c.; for factor by which more effective than RU 486 (C) in the abortive test: pregnant rats, s.c.
Protocol: The abortifacient activity was determined to define the antigestagenic effect. The tests were carried out on female rats with a weight of approx. 200 g. […] The date on which sperm are detected was considered the 1st day of pregnancy (=dl p.c.). The animals were treated with the substance to be tested or the solvent after nidation of the blastocysts from d5 p.c. to d7 p.c. The animals were killed on d9 p.c. and the uteri were checked for implants and points of resorption. Photos were made of all uteri. Lack of implants was considered as abortions. The test substances were dissolved in a mixture of benzylbenzoate and castor oil (ratio of 1:4). The vehicle volume per individual dose amounted to 0.2 ml. Treatment was subcutaneous (s.c.).

[2] = test system: guinea pigs; assay: Abortive effect in guinea pigs; assay type: in vivo, guinea pig
Protocol: The abortive effect of the substances in accordance with the invention (A) and (B) was also determined using guinea pigs as test animals.
The test results gained from guinea pigs permit more reliable predictions to be made on the abortive activity of the tested compound(s) to be expected in the case of humans than is permitted by the data gained with rats.

[3] = test system: tyrosine amino-transferase (TAT) in RHC (Rat Hepatoma Cells); assay: Antiglucocorticoid activity: tyrosine amino-transferase (TAT) induction in RHC cultures; assay type: cell-based; conditions: for antiglucocorticoid activity as % of the activity of the standard compound RU 486 (C): TAT test in RHC, simultaneous treatment with corticoid; for EC (max): Rattus norvegicus, read-out: concentration of max. TAT activity (induction)
Protocol: To identify the antiglucocorticoid activity, the effect of the substances in accordance with the invention on the tyrosine amino-transferase was determined. The test system is based on measurement of the activity of the liver enzyme tyrosine amino-transferase (TAT) in cultures of RHC (Rat Hepatoma Cells). The enzyme catalyzes the first step in the metabolism of tyrosine and can be induced by glucocorticoids both in the liver and in hepatoma cells. The activity is easy to measure in raw extracts (Granner and Tomkins, (1970) Meth. Enzymol. 15, 633). The enzyme converts the amino group of tyrosine to 2-oxoglutaric acid. Glutaminic acid and p-hydroxy-phenylpyruvate are formed. […] Its measured absorption lies at 331 nm. […] The activity can be stimulated by a factor of 4 to 6 above basal value. Simultaneous treatment with corticoid and antiglucocorticoid leads to a decrease in the TAT activity.

[4] = target: T1, gestagen receptor (Oryctolagus cuniculus, UniProt P06186); assay: Gestagen receptor binding test (3H-progesterone displacement, rabbit uterus cytosol)
T1 sequence (P06186 1-930): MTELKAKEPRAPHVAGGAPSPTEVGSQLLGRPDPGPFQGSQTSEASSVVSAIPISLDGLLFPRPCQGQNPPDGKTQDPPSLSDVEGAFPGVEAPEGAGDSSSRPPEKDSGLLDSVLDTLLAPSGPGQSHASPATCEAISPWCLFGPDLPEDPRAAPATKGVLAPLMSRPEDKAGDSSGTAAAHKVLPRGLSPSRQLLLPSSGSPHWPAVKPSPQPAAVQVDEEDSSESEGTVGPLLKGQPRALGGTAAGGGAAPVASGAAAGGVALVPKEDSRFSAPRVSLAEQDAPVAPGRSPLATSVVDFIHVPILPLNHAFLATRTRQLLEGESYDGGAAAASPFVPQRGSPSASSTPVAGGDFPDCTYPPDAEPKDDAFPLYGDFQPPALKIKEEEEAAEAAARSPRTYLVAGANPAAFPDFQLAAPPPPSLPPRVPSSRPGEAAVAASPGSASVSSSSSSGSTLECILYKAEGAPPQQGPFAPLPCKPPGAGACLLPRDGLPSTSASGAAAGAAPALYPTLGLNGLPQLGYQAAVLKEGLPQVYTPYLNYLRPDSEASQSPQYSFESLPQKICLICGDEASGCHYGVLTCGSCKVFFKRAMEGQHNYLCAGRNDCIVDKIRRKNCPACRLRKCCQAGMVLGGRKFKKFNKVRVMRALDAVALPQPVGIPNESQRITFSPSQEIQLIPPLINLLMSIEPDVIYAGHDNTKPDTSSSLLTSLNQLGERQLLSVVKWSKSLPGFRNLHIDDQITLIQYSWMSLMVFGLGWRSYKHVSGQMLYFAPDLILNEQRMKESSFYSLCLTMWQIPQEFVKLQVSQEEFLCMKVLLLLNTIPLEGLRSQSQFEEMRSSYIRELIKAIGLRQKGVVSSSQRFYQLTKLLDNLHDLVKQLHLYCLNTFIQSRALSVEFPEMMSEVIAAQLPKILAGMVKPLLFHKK
Protocol: The affinity of the compounds in accordance with the invention to the gestagen receptor is examined with the gestagen receptor binding test. In this test the displacement of the agonist by the antagonist is measured. Cytosol from rabbit uterus homogenate which contains the receptor molecule (a protein) is used in the test. This binds progesterone with high affinity and low capacity. When these receptors are charged with ^3 H-progesterone in the presence of the unlabeled substance to be tested, the extent to which the ^3 H-progesterone is displaced from the receptor depends on the concentration and binding affinity of the compound to be tested. After separation of the receptor-bound progesterone from the non-bound progesterone, the binding can be determined as a percentage and this value plotted against the log of the molar concentration of the test substance. Characteristic dosage-dependent displacement curves are obtained and the concentration of the test substance can be determined which is required to oust the reference substance […] from the receptor.

strength in the gestagen receptor binding test compared with standard compound (C) [4]	SMILES	Abortion Rate n aborting/n treated rats ([1]; 0.3 mg/animal/day s.c.)	Abortion Rate n aborting/n treated rats ([1]; 1.0 mg/animal/day s.c.)	Abortion Rate n aborting/n treated rats ([1]; 3.0 mg/animal/day s.c.)	abortive effect in words [1]	factor by which more effective than RU 486 (C) in the abortive test [1]	abortifacient effect compared with compound (D) [2]	antiglucocorticoid activity as % of the activity of the standard compound RU 486 (C) [3]	EC (max) [3] [µM]
much stronger	CC#C[C@]1(O)C=C[C@H]2[C@@H]3CCC4=CC(=O)CCC4=C3[C@@H](c3ccc(C(C)=O)cc3)C[C@@]21C [A, 11β-(4-acetylphenyl)-17β-hydroxy-17α-(prop-1-inyl)-4,9,15-estratrien-3-one]	4/4	4/4	4/4	fully abortive	10	strikingly higher abortifacient effect	20-50%	–
about the same strength	C#CC[C@]1(O)C=C[C@H]2[C@@H]3CCC4=CC(=O)CCC4=C3[C@@H](c3ccc(C(C)=O)cc3)C[C@@]21C [B, 11β-(4-acetylphenyl)-17β-hydroxy-17α-(prop-2-inyl)-4,9,15-estratrien-3-one]	4/4	4/4	4/4	fully abortive	10	strikingly higher abortifacient effect	less than 1%	–
–	CC#C[C@]1(O)CC[C@H]2[C@@H]3CCC4=CC(=O)CCC4=C3[C@@H](c3ccc(N(C)C)cc3)C[C@@]21C [C, 11β-(4-dimethylaminophenyl)-17β-hydroxy-17α-(prop-1-inyl)-4,9,(10)-estradien-3-one, reference compound]	0/4	2/4	4/4	–	–	–	–	–
–	CC#C[C@]1(O)CC[C@H]2[C@@H]3CCC4=CC(=O)CCC4=C3[C@@H](c3ccc(C(C)=O)cc3)C[C@@]21C [D, 11β-(4-acetylphenyl)-17β-hydroxy-17α-(prop-1-inyl)-4,9-estradien-3-one, reference compound]	4/4	4/4	4/4	–	–	–	–	–
–	C[C@]12CCC(=O)C=C1CC[C@@H]1[C@@H]2[C@@H](O)C[C@@]2(C)[C@H]1CC[C@]2(O)C(=O)CO [cortisol, reference compound]	–	–	–	–	–	–	–	1
–	C[C@@H]1C[C@H]2[C@@H]3CCC4=CC(=O)C=C[C@]4(C)[C@@]3(F)[C@@H](O)C[C@]2(C)[C@@]1(O)C(=O)CO [dexamethasone, reference compound]	–	–	–	–	–	–	–	0.1
